Data set [1] has as its system Septoria tritici. Briefly: Fungicidal activity: leaf blotch of wheat, one-day protectant and three-day curative tests on wheat plants. Type of data set: in vivo. Particulars: Zymoseptoria tritici. As to the method:
Example 16: Evaluation of Fungicidal Activity: Leaf Blotch of Wheat (Mycosphaerella graminicola; anamorph: Septoria tritici; Bayer code SEPTTR)
Wheat plants (variety Yuma) were grown from seed in a greenhouse in 50% mineral soil/50% soil-less Metro mix until the first leaf was fully emerged, with 7-10 seedlings per pot. These plants were inoculated with an aqueous spore suspension of Septoria tritici either prior to or after fungicide treatments. After inoculation the plants were kept in 100% relative humidity (one day in a dark dew chamber followed by two to three days in a lighted dew chamber) to permit spores to germinate and infect the leaf. The plants were then transferred to a greenhouse for disease to develop.
The following tables present the activity of typical compounds of the present disclosure when evaluated in these experiments. The effectiveness of the test compounds in controlling disease was determined by assessing the severity of disease on treated plants, then converting the severity to percent control based on the level of disease on untreated, inoculated plants.
The following table presents the activity of typical compounds of the present disclosure when evaluated in these experiments. The effectiveness of the test compounds in controlling disease was determined by assessing the severity of disease on treated plants, then converting the severity to percent control based on the level of disease on untreated, inoculated plants.

Where [2] appears, read: 24 h, One-Day Protectant (1 DP), 100 ppm, wheat plants (variety Yuma), read-out: SEPTTR 100 PPM 1 DP (% Disease Control rating).
[3] abbreviates: 72 h, Three-Day Curative (3 DC), 100 ppm, wheat plants (variety Yuma), read-out: SEPTTR 100 PPM 3 DC (% Disease Control rating).

The structures appear in SMILES notation. Read-outs that look alike come from different tables or passages of the source.

A word on the melting point: it is the temperature, or range, at which the solid turns liquid. Compound `C/N=c1\c(F)cn(S(=O)(=O)c2ccc(OC)cc2)c(=O)n1C` [Compound F1, (E)-5-fluoro-1-((4-methoxyphenyl)sulfonyl)-3-methyl-4-(methylimino)-3,4-dihydropyrimidin-2(1H)-one] registered a melting point of 97 to 105 °C. Moreover, the pest or weed control at 100 ppm in data set [1] (setting [2]) was in the range of 76 to 100%. For the same compound, the pest or weed control at 100 ppm in data set [1] (setting [3]) fell in the range of 51 to 75%.
On the same counts, the results for `C/N=c1\c(F)cn(S(=O)(=O)c2ccccc2)c(=O)n1C` [Compound F2] are 142 to 144 °C, 76 to 100% and 51 to 75%.
The matching figures for `C/N=c1\c(F)cn(S(=O)(=O)c2ccc(C)cc2)c(=O)n1C` [Compound F3]: 117 to 123 °C, 76 to 100% and 51 to 75%.
The matching figures for `C/N=c1\c(F)cn(S(=O)(=O)c2cccs2)c(=O)n1C` [Compound F4]: 136 to 138 °C, 76 to 100% and 76 to 100%.
`C/N=c1\c(F)cn(S(=O)(=O)c2ccc(Cl)cc2)c(=O)n1C` [Compound F5] registered a melting point of 130 to 134 °C. In addition, the pest or weed control at 100 ppm in data set [1] (setting [2]) lay within 76 to 100%. Moreover, the pest or weed control at 100 ppm in data set [1] (setting [3]) was in the range of 76 to 100%.
On to `C/N=c1\c(F)cn(S(=O)(=O)c2ccc(OC(F)(F)F)cc2)c(=O)n1C` [Compound F6], for which the melting point was in the range of 139.2 to 140 °C. In addition, the pest or weed control at 100 ppm in data set [1] (setting [2]) lay within 76 to 100%. In addition, the pest or weed control at 100 ppm in data set [1] (setting [3]) is 76 to 100%.
In turn, `C/N=c1\c(F)cn(S(=O)(=O)c2cccc(C#N)c2)c(=O)n1C` [Compound F7] registered a melting point of 148.6 to 150.6 °C. Besides, the pest or weed control at 100 ppm in data set [1] (setting [2]) fell in the range of 26 to 50%. Also, the pest or weed control at 100 ppm in data set [1] (setting [3]) lay in the range of 51 to 75%.
In turn, `C/N=c1\c(F)cn(S(=O)(=O)c2ccccc2OC)c(=O)n1C` [Compound F8] returned a melting point of 204 to 205.4 °C. The pest or weed control at 100 ppm in data set [1] (setting [2]) was 76 to 100%. Further, in data set [1] (setting [3]), the pest or weed control at 100 ppm lay within 76 to 100%.
For `C/N=c1\c(F)cn(S(=O)(=O)c2cc(Cl)sc2Cl)c(=O)n1C` [Compound F9], the melting point lay in the range of 157.1 to 158 °C. The pest or weed control at 100 ppm in data set [1] (setting [2]) was in the range of 76 to 100%. The pest or weed control at 100 ppm in data set [1] (setting [3]) fell in the range of 76 to 100%.
`C/N=c1\c(F)cn(S(=O)(=O)c2ccc(C)c(Cl)c2)c(=O)n1C` [Compound F10] came in with a melting point of 149.4 to 151 °C. In data set [1] (setting [2]), the pest or weed control at 100 ppm is 76 to 100%. Further, the pest or weed control at 100 ppm in data set [1] (setting [3]) fell in the range of 51 to 75%.
Take `C/N=c1\c(F)cn(S(=O)(=O)c2cc(OC)ccc2OC)c(=O)n1C` [Compound F11]: the melting point lay in the range of 115 to 117.8 °C. For the same compound, in data set [1] (setting [2]), the pest or weed control at 100 ppm is 76 to 100%. For the same compound, the pest or weed control at 100 ppm in data set [1] (setting [3]) was 76 to 100%.
`C/N=c1\c(F)cn(S(=O)(=O)c2cccc(OC)c2)c(=O)n1C` [Compound F12] showed a melting point of 111.4 to 112 °C. The pest or weed control at 100 ppm in data set [1] (setting [2]) was in the range of 76 to 100%. Moreover, in data set [1] (setting [3]), the pest or weed control at 100 ppm fell in the range of 76 to 100%.
Compound `C/N=c1\c(F)cn(S(=O)(=O)c2ccc(OC)c(F)c2)c(=O)n1C` [Compound F13] had a melting point of 138.9 to 140.3 °C. Also, in data set [1] (setting [2]), the pest or weed control at 100 ppm lay in the range of 76 to 100%. Further, in data set [1] (setting [3]), the pest or weed control at 100 ppm is 76 to 100%.
With `C/N=c1\c(F)cn(S(=O)(=O)c2cccc(F)c2)c(=O)n1C` [Compound F14], the melting point is 137.3 to 138.9 °C. In addition, the pest or weed control at 100 ppm in data set [1] (setting [2]) fell in the range of 76 to 100%. For the same compound, the pest or weed control at 100 ppm in data set [1] (setting [3]) lay within 51 to 75%.
On the same counts, the results for `C/N=c1\c(F)cn(S(=O)(=O)c2c(C)cc(C)cc2C)c(=O)n1C` [Compound F15] are 175.7 to 177.6 °C, 26 to 50% and 26 to 50%.
The matching figures for `C/N=c1\c(F)cn(S(=O)(=O)c2cccc(C)c2)c(=O)n1C` [Compound F16]: 123.7 to 125.8 °C, 26 to 50% and 0 to 25%.
On the same counts, the results for `C/N=c1\c(F)cn(S(=O)(=O)c2ccsc2)c(=O)n1C` [Compound F17] are 121.1 to 122.6 °C, 76 to 100% and 76 to 100%.
Turning to `C/N=c1\c(F)cn(S(=O)(=O)c2cn(C)nc2C)c(=O)n1C` [Compound F18], the melting point was in the range of 147 to 149 °C. Besides, in data set [1] (setting [2]), the pest or weed control at 100 ppm was in the range of 26 to 50%. In addition, the pest or weed control at 100 ppm in data set [1] (setting [3]) lay in the range of 76 to 100%.
On the same counts, the results for `C/N=c1\c(F)cn(S(=O)(=O)c2c(C)noc2C)c(=O)n1C` [Compound F19] are 130.1 to 131.1 °C, 0 to 25% and 51 to 75%.
Consider `C/N=c1\c(F)cn(S(=O)(=O)c2cc(Cl)cc(Cl)c2)c(=O)n1C` [Compound F20], for which the melting point is 135 to 136.9 °C. Besides, the pest or weed control at 100 ppm in data set [1] (setting [2]) was in the range of 26 to 50%. Also, the pest or weed control at 100 ppm in data set [1] (setting [3]) was 0 to 25%.
As for `C/N=c1\c(F)cn(S(=O)(=O)c2ccc(F)cc2Cl)c(=O)n1C` [Compound F21], the melting point was 109 to 112 °C.
Regarding `C/N=c1\c(F)cn(S(=O)(=O)c2cc(C)c(Cl)cc2C)c(=O)n1C` [Compound F22], the pest or weed control at 100 ppm in data set [1] (setting [2]) and in data set [1] (setting [3]) was 76 to 100% in each case.
Consider `C/N=c1\c(F)cn(S(=O)(=O)c2sc(C)nc2C)c(=O)n1C` [Compound F23], for which the pest or weed control at 100 ppm in data set [1] (setting [2]) lay in the range of 26 to 50%; in data set [1] (setting [3]), 76 to 100%.
`COc1ccc(S(=O)(=O)n2cc(F)/c(=N\C(=O)Oc3ccccc3)n(C)c2=O)cc1` [Compound F24, phenyl (5-fluoro-1-((4-methoxyphenyl)sulfonyl)-3-methyl-2-oxo-2,3-dihydropyrimidin-4(1H)-ylidene)carbamate] gave a melting point of 190 to 193 °C. In addition, the pest or weed control at 100 ppm in data set [1] (24 h, read-out: SEPTTR 100 PPM 1 DP (% Disease Control rating)) is 0 to 25%. In addition, the pest or weed control at 100 ppm in data set [1] (72 h, read-out: SEPTTR 100 PPM 3 DC (% Disease Control rating)) fell in the range of 0 to 25%.
For `Cc1ccc(S(=O)(=O)n2cc(F)/c(=N/C(=O)C(C)C)n(COC(=O)C(C)C)c2=O)cc1` [Compound F25, Z)-(5-fluoro-6-(isobutyrylimino)-2-oxo-3-tosyl-2,3-dihydropyrimidin-1(6H)-yl)methyl isobutyrate], the pest or weed control at 100 ppm in data set [1] (setting [2]) fell in the range of 0 to 25%; in data set [1] (setting [3]) it was 76 to 100%.
Turning to `COc1ccc(S(=O)(=O)n2cc(F)/c(=N/C(C)=O)n(C)c2=O)cc1` [Compound F26], the pest or weed control at 100 ppm in data set [1] (setting [2]) and in data set [1] (setting [3]) was 76 to 100% each time.
Turning to `COC(=O)/N=c1\c(F)cn(S(=O)(=O)c2ccc(OC)cc2)c(=O)n1C` [Compound F27, methyl (5-fluoro-1-((4-methoxyphenyl)sulfonyl)-3-methyl-2-oxo-2,3-dihydropyrimidin-4(1H)-ylidene)carbamate], the melting point is 124 to 125 °C. In data set [1] (setting [2]), the pest or weed control at 100 ppm was in the range of 0 to 25%. Also, the pest or weed control at 100 ppm in data set [1] (setting [3]) is 0 to 25%.
The compound `C/N=c1\c(F)cn(S(=O)(=O)C2CC2)c(=O)n1C` [Compound F28] came in with a melting point of 102.2 to 104 °C. For the same compound, in data set [1] (setting [2]), the pest or weed control at 100 ppm was 0 to 25%. The pest or weed control at 100 ppm in data set [1] (setting [3]) lay in the range of 51 to 75%.
Turning to `CC(=O)/N=c1\c(F)cn(S(=O)(=O)c2ccc(C)cc2)c(=O)n1C` [Compound F29], the melting point was in the range of 134.6 to 136.2 °C. Also, in data set [1] (setting [2]), the pest or weed control at 100 ppm lay within 76 to 100%. The pest or weed control at 100 ppm in data set [1] (setting [3]) lay within 76 to 100%.
With `COc1ccc(S(=O)(=O)n2cc(F)/c(=N\C(C)=O)n(C)c2=O)cc1` [Compound F31, N-(5-fluoro-1-((4-methoxyphenyl)sulfonyl)-3-methyl-2-oxo-2,3-dihydropyrimidin-4(1H)-ylidene)acetamide], the pest or weed control at 100 ppm in data set [1] (setting [2]) and in data set [1] (setting [3]) was 76 to 100% each time.
Turning to `[2H]C([2H])([2H])/N=c1\c(F)cn(S(=O)(=O)c2ccccc2)c(=O)n1C([2H])([2H])[2H]` [Compound F61, 5-fluoro-1-(phenylsulfonyl)-3-trideuteriomethyl-4-(trideuteriomethylimino)-3,4-dihydropyrimidin-2(1H)-one], the pest or weed control at 100 ppm in data set [1] (setting [2]) and in data set [1] (setting [3]) was 0 to 25% each time.
On to `[2H]C([2H])([2H])/N=c1\c(F)cn(S(=O)(=O)c2ccc(C)cc2)c(=O)n1C([2H])([2H])[2H]` [Compound F62, 5-fluoro-1-((4-methylphenyl)sulfonyl)-3-trideuteriomethyl-4-(trideuteriomethylimino)-3,4-dihydropyrimidin-2(1H)-one], for which the pest or weed control at 100 ppm in data set [1] (setting [2]) and in data set [1] (setting [3]) was 0 to 25% throughout.
As to `[2H]C([2H])([2H])/N=c1\c(F)cn(S(=O)(=O)c2ccc(OC)cc2)c(=O)n1C([2H])([2H])[2H]` [Compound F63, 5-fluoro-1-((4-methoxyphenyl)sulfonyl)-3-trideuteriomethyl-4-(trideuteriomethylimino)-3,4-dihydropyrimidin-2(1H)-one], the pest or weed control at 100 ppm in data set [1] (setting [2]) and in data set [1] (setting [3]) was 0 to 25% each time.

For the origin of these results see US10059703B2, “3-alkyl-5-fluoro-4-substituted-imino-3,4-dihydropyrimidin-2(1H)-one derivatives as fungicides” (Adama Makhteshim Ltd., priority 2012, dated 2018).
